Test results reported in ChEMBL document CHEMBL5120867, “Hernandezine Regulates Proliferation and Autophagy-Induced Apoptosis in Melanoma Cells” (J Nat Prod, 2022).
Calls of active or inactive are those of the source. No cut-off for these calls is given here.

How the values were obtained:
NCI-H1299 = test: Cytotoxicity against human NCI-H1299 cells assessed as reduction in cell viability by MTT assay; type: functional, cell-based
HepG2 = test: Cytotoxicity against human HepG2 cells assessed as reduction in cell viability by MTT assay; type: functional, cell-based
A-375 [1] = test: Inhibition of colony formation in human A-375 cells assessed as reduction in number of colonies at 6 to 8 uM incubated for 24 hrs followed by replacement with fresh medium and measured after 14 days by crystal violet staining based analysis; type: functional, cell-based; conditions: dose 6-8 µM
A-375 [2] = test: Cytotoxicity against human A-375 cells assessed as change in cell morphology with loss of […] contacts at 6 to 8 uM incubated for 24 hrs by […] phase contrast microscope analysis; type: functional; conditions: dose 6-8 µM
A-375 [3] = test: Induction of cell cycle arrest in human A-375 cells assessed as accumulation at G0/G1 phase at 6 uM incubated for 24 hrs by PI staining based flow cytometry analysis (reference value: 69.68 %); type: functional
A-375 [4] = test: Downregulation of CDK4 protein expression in human A-375 cells at 6 to 8 uM measured after 12 to 24 hrs by western blot assay; type: functional, cell-based; conditions: dose 6-8 µM, time 12-24 hrs
[5] = biological target: Tyrosine-protein kinase JAK2 (Homo sapiens) (UniProt O60674); test: Inhibition of JAK2 phosphorylation in human A-375 cells assessed as decrease in phosphorylated JAK2 level at 6 to 8 uM measured after 12 to 24 hrs by Western blot analysis; type: cell-based; conditions: dose 6-8 µM, time 12-24 hrs
Sequence of Tyrosine-protein kinase JAK2 (Homo sapiens) (O60674 whole entry): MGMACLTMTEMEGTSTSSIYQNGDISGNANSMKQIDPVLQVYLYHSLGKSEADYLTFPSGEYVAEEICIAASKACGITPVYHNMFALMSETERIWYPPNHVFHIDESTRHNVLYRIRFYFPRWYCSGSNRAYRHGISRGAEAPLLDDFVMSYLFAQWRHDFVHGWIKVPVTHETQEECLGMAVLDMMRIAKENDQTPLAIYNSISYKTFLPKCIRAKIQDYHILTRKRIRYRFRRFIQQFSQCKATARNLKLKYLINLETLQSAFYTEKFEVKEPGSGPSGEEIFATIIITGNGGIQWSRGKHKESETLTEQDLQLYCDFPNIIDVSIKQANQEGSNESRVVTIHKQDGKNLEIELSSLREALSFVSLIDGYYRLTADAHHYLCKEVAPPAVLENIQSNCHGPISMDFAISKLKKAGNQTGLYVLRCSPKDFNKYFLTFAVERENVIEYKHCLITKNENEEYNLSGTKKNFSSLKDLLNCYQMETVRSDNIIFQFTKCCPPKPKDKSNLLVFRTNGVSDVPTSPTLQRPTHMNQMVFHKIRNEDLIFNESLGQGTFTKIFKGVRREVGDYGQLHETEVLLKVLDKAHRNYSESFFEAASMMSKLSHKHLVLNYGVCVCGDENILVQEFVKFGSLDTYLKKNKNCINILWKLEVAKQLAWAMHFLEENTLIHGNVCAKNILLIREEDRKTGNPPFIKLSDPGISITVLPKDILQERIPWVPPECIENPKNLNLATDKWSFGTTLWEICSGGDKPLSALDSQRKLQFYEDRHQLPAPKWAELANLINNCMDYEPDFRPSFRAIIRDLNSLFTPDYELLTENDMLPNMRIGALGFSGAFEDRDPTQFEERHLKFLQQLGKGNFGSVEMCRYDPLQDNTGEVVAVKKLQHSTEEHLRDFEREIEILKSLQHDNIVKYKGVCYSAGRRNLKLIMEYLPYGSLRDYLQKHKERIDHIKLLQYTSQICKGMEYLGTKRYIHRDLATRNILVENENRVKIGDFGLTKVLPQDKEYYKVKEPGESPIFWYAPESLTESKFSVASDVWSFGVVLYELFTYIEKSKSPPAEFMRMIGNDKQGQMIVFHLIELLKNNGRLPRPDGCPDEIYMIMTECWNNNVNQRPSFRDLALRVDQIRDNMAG

[6] = biological target: Signal transducer and activator of transcription 3 (Homo sapiens) (UniProt P40763); test: Inhibition of STAT3 phosphorylation in human A-375 cells assessed as decrease in phosphorylated STAT3 level at 6 to 8 uM measured after 12 to 24 hrs by Western blot analysis; type: cell-based; conditions: dose 6-8 µM, time 12-24 hrs
Sequence of Signal transducer and activator of transcription 3 (Homo sapiens) (P40763 whole entry): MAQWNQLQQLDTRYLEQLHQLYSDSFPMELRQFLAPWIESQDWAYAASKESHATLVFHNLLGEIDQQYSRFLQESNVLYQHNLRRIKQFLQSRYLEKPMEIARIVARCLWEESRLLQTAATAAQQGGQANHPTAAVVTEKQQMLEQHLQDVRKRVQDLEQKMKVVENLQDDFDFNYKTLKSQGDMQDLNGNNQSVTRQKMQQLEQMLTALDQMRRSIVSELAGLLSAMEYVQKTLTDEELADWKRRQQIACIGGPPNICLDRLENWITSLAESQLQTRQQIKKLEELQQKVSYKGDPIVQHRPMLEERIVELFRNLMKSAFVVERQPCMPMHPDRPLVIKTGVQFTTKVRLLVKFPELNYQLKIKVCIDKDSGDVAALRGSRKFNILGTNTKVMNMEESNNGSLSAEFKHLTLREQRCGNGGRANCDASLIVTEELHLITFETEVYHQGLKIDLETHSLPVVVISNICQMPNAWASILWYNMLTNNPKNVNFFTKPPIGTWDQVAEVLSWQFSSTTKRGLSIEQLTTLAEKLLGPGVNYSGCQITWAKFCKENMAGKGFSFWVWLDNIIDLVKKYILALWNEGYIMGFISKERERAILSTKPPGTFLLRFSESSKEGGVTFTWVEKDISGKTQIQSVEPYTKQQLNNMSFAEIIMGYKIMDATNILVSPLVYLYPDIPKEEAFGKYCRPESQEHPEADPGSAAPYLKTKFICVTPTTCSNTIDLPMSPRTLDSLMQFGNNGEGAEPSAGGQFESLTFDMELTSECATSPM

A-375 [7] = test: Induction of cell cycle arrest in human A-375 cells assessed as accumulation at G0/G1 phase incubated for 24 hrs by PI staining based flow cytometry analysis (reference value: 56.69 %); type: functional
A-375 [8] = test: Induction of cell cycle arrest in human A-375 cells assessed as accumulation at S phase incubated for 24 hrs in presence of AG490 by PI staining based flow cytometry analysis (reference value: 34.44 %); type: functional
A-375 [9] = test: Cytotoxicity against human A-375 cells assessed as decrease in number of adherent cells at 6 to 8 uM incubated for 24 hrs by […] phase contrast microscope analysis; type: functional, cell-based; conditions: dose 6-8 µM
B16 [10] = test: Inhibition of colony formation in mouse B16 cells assessed as reduction in number of colonies at 5 to 7 uM incubated for 24 hrs followed by replacement with fresh medium and measured after 14 days by crystal violet staining based analysis; type: functional, cell-based; conditions: dose 5-7 µM
B16 [11] = test: Induction of cell cycle arrest in mouse B16 cells assessed as accumulation at S phase at 5 uM incubated for 24 hrs by PI staining based flow cytometry analysis (reference value: 33.46 %); type: functional
A-375 [12] = test: Induction of apoptosis in human A-375 cells assessed as early apoptotic cells at 6 uM after 24 hrs by Annexin-V-FITC/PI-staining based flow cytometry (reference value: 1.4 %); type: functional
A-375 [13] = test: Induction of apoptosis in human A-375 cells assessed as early apoptotic cells at 7 uM after 24 hrs by Annexin-V-FITC/PI-staining based flow cytometry (reference value: 1.4 %); type: functional
A-375 [14] = test: Induction of apoptosis in human A-375 cells assessed as late apoptotic cells preincubated for 2 hrs with […] followed by compound addition and measured after 24 hrs by Annexin-V-FITC/PI-staining based flow cytometry (reference value: 5.7 %); type: functional
A-375 [15] = test: Inhibition of autophagy in human A-375 cells harbouring mCherry-EGFP-LC3 assessed as increase in number of autophagosomes at 7 uM incubated for 8 to 24 hrs by laser scanning confocal microscopic analysis; type: functional, cell-based; conditions: time 8-24 hrs, TDE = time-dependent effect
A-375 [16] = test: Induction of apoptosis in human A-375 cells assessed as early apoptotic cells after 24 hrs by Annexin-V-FITC/PI-staining based flow cytometry (reference value: 3.1 %); type: functional
B16 [17] = test: Induction of apoptosis in mouse B16 cells assessed as chromatin condensation at 5 to 7 uM incubated for 24 hrs by Hoechst 33258 staining based fluorescence microscopy; type: functional, cell-based; conditions: dose 5-7 µM
B16 [18] = test: Induction of apoptosis in mouse B16 cells assessed as late apoptotic cells at 7 uM measured after 24 hrs by Annexin-V-FITC/PI-staining based flow cytometry (reference value: 4.4 %); type: functional
B16 [19] = test: Induction of apoptosis in mouse B16 cells assessed as early apoptotic cells preincubated for 2 hrs with 3-MA followed by compound addition and measured after 24 hrs by Annexin-V-FITC/PI-staining based flow cytometry (reference value: 0.9 %); type: functional
B16 [20] = test: Induction of apoptosis in mouse B16 cells assessed as early apoptotic cells preincubated for 2 hrs with […] followed by compound addition and measured after 24 hrs by Annexin-V-FITC/PI-staining based flow cytometry (reference value: 0.9 %); type: functional
B16 [21] = test: Induction of apoptosis in mouse B16 cells assessed as late apoptotic cells preincubated for 2 hrs with […] followed by compound addition and measured after 24 hrs by Annexin-V-FITC/PI-staining based flow cytometry (reference value: 5.7 %); type: functional
B16 [22] = test: Induction of apoptosis in mouse B16 cells assessed as late apoptotic cells measured after 24 hrs by Annexin-V-FITC/PI-staining based flow cytometry (reference value: 5.7 %); type: functional
A-375 [23] = test: Induction of autophagy in human A-375 cells assessed as increase in autophagosome with central pulp at 7 uM incubated for 6 to 24 hrs by transmission electron microscopy; type: functional, cell-based; conditions: time 6-24 hrs

In the case of `COc1ccc2cc1Oc1ccc(cc1)C[C@H]1c3cc(c(OC)cc3CCN1C)Oc1c(OC)c(OC)c(OC)c3c1[C@H](C2)N(C)CC3` [HERNANDEZINE], the IC50 (NCI-H1299) is reported as 6.74 µM, the IC50 (HepG2) is reported as 7.42 µM and the inhibition (A-375 [1]) is reported as “Active”. The Activity (A-375 [2]) was “Active”, the Activity (A-375 [3]) was 76.28% and the Activity (A-375 [4]) was “Active”. For the same compound, the inhibition [5] was “Active”, the inhibition [6] was “Active” and the Activity (A-375 [7]) was 63.87%. The Activity (A-375 [8]) was 24.36%, the Activity (A-375 [9]) was “Active” and the inhibition (B16 [10]) was “Active”. For the same compound, the Activity (B16 [11]) was 23.42%, the Activity (A-375 [12]) was 4.1% and the Activity (A-375 [13]) was 9.4%. For the same compound, the Activity (A-375 [14]) was 23.9%, the inhibition (A-375 [15]) was “Tde” and the Activity (A-375 [16]) was 19.6%. For the same compound, the Activity (B16 [17]) was “Active”, the Activity (B16 [18]) was 25.8% and the Activity (B16 [19]) was 14.1%. The Activity (B16 [20]) was 14.4%, the Activity (B16 [21]) was 16% and the Activity (B16 [22]) was 20.6%. The Activity (A-375 [23]) was “Active”.
